Data from patent US11214803B2, “Modulators of YAP1 expression” (Ionis Pharmaceuticals, Inc., priority 2019, dated 2022).
Strand notation (5' to 3'): a small letter for the sugar, then the base; units joined by * are phosphorothioate-linked, units joined directly phosphodiester-linked; [ ] holds rarer units or linkages, { } end groups; capitals alone tell only the bases. e = 2'-O-(2-methoxyethyl) (MOE); k = constrained ethyl (cEt); [5mC] = 5-methylcytosine; d = 2'-deoxy (DNA); m = 2'-O-methyl

Tested on: Yap1 mRNA
Assay: Antisense inhibition of human Yap1 in SNU-449 cells by modified oligonucleotides, single dose (Example 5, RTS36584)
Type: cell-based
In short: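 Free uptake, 2,000 nM, ~48 h, SNU-449 at 10,000 cells/well. Read-out: qRT-PCR (RTS36584), RIBOGREEN-normalised, expressed as % UTC. Asterisk = oligo hits amplicon region.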

[1] = Table 46, Yap1 mRNA as percent of untreated control, SNU-449 cells, single dose
[2] = Table 39, SNU-449 cells, 10,000 cells per well, free uptake, 2,000 nM oligonucleotide, approx. 48 hours, RTS36584, normalized to RIBOGREEN, Yap1 mRNA relative to untreated control
[3] = Table 40 (separate experiment), SNU-449 cells, 10,000 cells per well, free uptake, 2,000 nM oligonucleotide, approx. 48 hours, RTS36584, normalized to RIBOGREEN, Yap1 mRNA relative to untreated control
[4] = Table 41, SNU-449 cells, 10,000 cells per well, free uptake, 2,000 nM modified oligonucleotide, approximately 48 hours, RTS36584, normalized to RIBOGREEN, Yap1 mRNA relative to untreated control cells
[5] = Table 49, Yap1 mRNA level relative to untreated control, modified oligonucleotides targeting SEQ ID NO.: 1 and 2
[6] = Table 51, Yap1 mRNA remaining as percent of untreated control (UT), SNU-449 cells, single dose
[7] = Table 43 experiment, SNU-449 cells, 10,000 cells per well, free uptake, 2,000 nM, approximately 48 hours, RTS36584, Yap1 mRNA normalized to RIBOGREEN, relative to untreated control cells
[8] = Table 42 (separate experiment), SNU-449 cells, 10,000 cells per well, free uptake, 2,000 nM modified oligonucleotide, approximately 48 hours, RTS36584, normalized to RIBOGREEN, Yap1 mRNA relative to untreated control cells
[9] = Table 44 experiment, SNU-449 cells, 10,000 cells per well, free uptake, 2,000 nM, approximately 48 hours, RTS36584, Yap1 mRNA normalized to RIBOGREEN, relative to untreated control cells
[10] = Table 48, Yap1 mRNA level relative to untreated control, modified oligonucleotides targeting SEQ ID NO.: 1 and 2
[11] = Table 52, Yap1 mRNA, modified oligonucleotides targeting SEQ ID NO: 1 and 2
[12] = Yap1 mRNA, percent of untreated control, modified oligonucleotides targeting SEQ ID NO: 1 and 2, Table 47
[13] = Table 50, Yap1 mRNA remaining as percent of untreated control (UT), SNU-449 cells, single dose

1198804 (antisense kT*kG*dT*d[5mC]*dT*d[5mC]*dA*dT*dG*d[5mC]*d[5mC]*kT*eT*kA*eT*kA) [Compound 1198804]
YAP1 (% UT) [1]: 22 % UT

1198389 (kG*dG*dT*dA*dT*dA*dA*d[5mC]*dT*dG*dG*kG*e[5mC]*kA*eA*kA; antisense) [Compound 1198389]
YAP1 (% UTC) [2]: 28 % UTC

1198800 (antisense kA*e[5mC]*kT*dA*dA*dG*dT*dA*dA*dG*dG*dT*eT*eT*k[5mC]*k[5mC]) [Compound 1198800]
YAP1 (% UTC) [3]: 47 % UTC

1198864 (kA*kT*dA*dT*dT*dG*d[5mC]*dA*dA*dT*d[5mC]*kT*eG*kT*e[5mC]*kT; antisense) [Compound 1198864]
YAP1 (% UT) [1]: 56 % UT

1198662 (antisense kT*kT*dT*dG*dG*dA*dA*dG*dA*dT*d[5mC]*dT*kG*eA*kA*eA) [Compound 1198662]
YAP1 (% UTC) [4]: 83 % UTC

1198375 (kG*dG*dA*dA*dA*dT*dT*dG*dT*d[5mC]*dT*k[5mC]*eA*kT*eG*k[5mC]; antisense) [Compound 1198375]
YAP1 (% UTC) [2]: 22 % UTC

1198358 (kT*kT*kT*dA*dA*dA*dG*dT*dG*dT*dA*dT*kG*eT*k[5mC]*eA; antisense) [Compound 1198358]
YAP1 (% UT) [5]: 15 % UT

1197267 (kA*kT*kG*dT*mA*dA*dT*dA*dT*dT*dG*d[5mC]*dA*kA*kT*k[5mC]) [Compound 1197267]
YAP1 (% UT) [6]: 62 % UT

1198743 (k[5mC]*eT*kT*dT*dT*dA*d[5mC]*dA*dT*dT*dA*dG*eG*eA*kA*k[5mC]; antisense) [Compound 1198743]
YAP1 (% UTC) [3]: 86 % UTC

1198461 (antisense kG*kG*dA*dA*dA*dT*dT*dG*dT*d[5mC]*dT*e[5mC]*kA*eT*kG*e[5mC]) [Compound 1198461]
YAP1 (% UTC) [7]: 24 % UTC

1198232 (kT*kT*dT*dG*dG*dA*dA*dG*dA*dT*d[5mC]*eT*eG*eA*kA*kA) [Compound 1198232]
YAP1 (% UTC) [8]: 92 % UTC

1197289 (kG*kG*kT*dA*mU*dA*dA*d[5mC]*dT*dG*dG*dG*d[5mC]*kA*kA*kA) [Compound 1197289]
YAP1 (% UT) [6]: 48 % UT

1095594 (antisense k[5mC]*kT*dG*dA*dG*dG*dT*dA*dT*dA*dA*e[5mC]*eT*eG*kG*kG) [Compound 1095594]
YAP1 (% UTC) [7]: 27 % UTC

1198764 (kA*eG*kA*dT*dT*dT*dA*dG*dG*dA*dT*dG*e[5mC]*eA*kT*kG; antisense) [Compound 1198764]
YAP1 (% UTC) [3]: 28 % UTC

1198388 (kT*dA*dT*dA*dA*d[5mC]*dT*dG*dG*dG*d[5mC]*kA*eA*kA*eT*kT; antisense) [Compound 1198388]
YAP1 (% UTC) [2]: 90 % UTC

1198503 (k[5mC]*kA*dG*dA*dT*dT*dT*dA*dG*dG*dA*eT*kG*e[5mC]*kA*eT; antisense) [Compound 1198503]
YAP1 (% UTC) [9]: 31 % UTC

1198700 (kT*kA*dA*dA*dG*dT*dG*dT*dA*dT*dG*dT*k[5mC]*eA*kG*eA; antisense) [Compound 1198700]
YAP1 (% UTC) [8]: 26 % UTC

1198581 (antisense kA*kG*kT*dG*d[5mC]*dT*dT*dT*dG*dG*dA*dA*kG*kA*kT*e[5mC]) [Compound 1198581]
YAP1 (% UT) [5]: 42 % UT

1198487 (antisense kT*kT*dA*dA*dG*d[5mC]*dA*d[5mC]*dT*dT*dT*eT*kA*e[5mC]*kA*eT) [Compound 1198487]
YAP1 (% UTC) [9]: 62 % UTC

1198655 (k[5mC]*kA*d[5mC]*dT*dT*dT*dT*dA*d[5mC]*dA*dT*dT*kA*eG*kG*eA; antisense) [Compound 1198655]
YAP1 (% UTC) [4]: 30 % UTC

1198285 (kA*kT*kT*dG*dT*d[5mC]*dT*d[5mC]*dA*dT*dG*d[5mC]*k[5mC]*eT*kT*eA; antisense) [Compound 1198285]
YAP1 (% UT) [10]: 13 % UT

1200825 (kT*kG*k[5mC]*dT*dT*mU*dG*dG*dA*dA*dG*dA*dT*k[5mC]*kT*kG; antisense) [Compound 1200825]
YAP1 (% UT) [11]: 39 % UT

1198286 (kA*kA*kT*dT*dG*dT*d[5mC]*dT*d[5mC]*dA*dT*dG*k[5mC]*e[5mC]*kT*eT; antisense) [Compound 1198286]
YAP1 (% UT) [10]: 17 % UT

1197272 (^{m}C_{ks}T_{ks}T_{ks}T_{ds}A_{ys}A_{ds}A_{ds}G_{ds}T_{ds}G_{ds}T_{ds}A_{ds}T_{ds}G_{ks}T_{ks}^{m}C_{k}; as printed in the source, key not given here) [Compound 1197272]
YAP1 (% UT) [6]: 32 % UT

1198448 (kA*dG*dT*dA*dA*dG*dG*dT*dT*dT*d[5mC]*k[5mC]*e[5mC]*kA*eG*kA) [Compound 1198448]
YAP1 (% UTC) [2]: 36 % UTC

1198514 (kG*kA*d[5mC]*dA*dA*d[5mC]*dT*d[5mC]*dT*dT*dA*eT*kA*eT*kG*eG; antisense) [Compound 1198514]
YAP1 (% UTC) [9]: 53 % UTC

1198761 (kT*eT*kT*dA*dG*dG*dA*dT*dG*d[5mC]*dA*dT*eG*eG*kT*kT; antisense) [Compound 1198761]
YAP1 (% UTC) [3]: 42 % UTC

1095426 (antisense k[5mC]*kT*dG*dA*dG*dG*dT*dA*dT*dA*dA*k[5mC]*eT*kG*eG*kG) [Compound 1095426]
YAP1 (% UT) [1]: 54 % UT

1198233 (k[5mC]*kT*dT*dT*dG*dG*dA*dA*dG*dA*dT*e[5mC]*eT*eG*kA*kA) [Compound 1198233]
YAP1 (% UTC) [8]: 49 % UTC

1200785 (kA*kT*kT*dG*dT*mC*dT*d[5mC]*dA*dT*dG*d[5mC]*d[5mC]*kT*kT*kA; antisense) [Compound 1200785]
YAP1 (% UT) [6]: 15 % UT

1198384 (kT*dA*dT*dT*dA*dG*dA*dG*dT*dA*dT*kG*eT*kG*eG*k[5mC]; antisense) [Compound 1198384]
YAP1 (% UTC) [2]: 6 % UTC

1197178 (antisense kA*kA*kT*dT*dG*dT*d[5mC]*dT*d[5mC]*dA*dT*dG*d[5mC]*k[5mC]*kT*kT) [Compound 1197178]
YAP1 (% UT) [12]: 12 % UT

1198748 (kA*eA*kG*d[5mC]*dA*d[5mC]*dT*dT*dT*dT*dA*d[5mC]*eA*eT*kT*kA; antisense) [Compound 1198748]
YAP1 (% UTC) [3]: 81 % UTC

1198954 (kT*kG*dT*dA*dA*dT*dA*dT*dT*dG*d[5mC]*kA*dA*kT*d[5mC]*kT; antisense) [Compound 1198954]
YAP1 (% UTC) (Table 45, Yap1 mRNA as percent of untreated control, SNU-449 cells, single dose): 94 % UTC

1198510 (k[5mC]*kT*d[5mC]*dT*dT*dA*dT*dA*dT*dG*dG*eT*kT*eT*kT*eG; antisense) [Compound 1198510]
YAP1 (% UTC) [9]: 8 % UTC

1198539 (antisense kG*kA*d[5mC]*dT*dA*dA*dG*dT*dA*dA*dG*eG*kT*eT*kT*e[5mC]) [Compound 1198539]
YAP1 (% UTC) [9]: 54 % UTC

1198619 (kT*kA*kA*dG*dG*dT*dT*dT*d[5mC]*d[5mC]*d[5mC]*dA*kG*kA*kT*eT) [Compound 1198619]
YAP1 (% UT) [13]: 53 % UT

1197247 (antisense kA*kA*kG*d[5mC]*mA*d[5mC]*dT*dT*dT*dT*dA*d[5mC]*dA*kT*kT*kA) [Compound 1197247]
YAP1 (% UT) [13]: 47 % UT

1200870 (kA*k[5mC]*kT*dA*dA*mG*dT*dA*dA*dG*dG*dT*dT*kT*k[5mC]*k[5mC]; antisense) [Compound 1200870]
YAP1 (% UT) [11]: 73 % UT

1198872 (kT*kG*dT*dA*dT*dG*dT*d[5mC]*dA*dG*dA*kA*eG*kA*eG*kT; antisense) [Compound 1198872]
YAP1 (% UT) [12]: 8 % UT

1198710 (kA*k[5mC]*dT*dA*dA*dG*dT*dA*dA*dG*dG*dT*kT*eT*k[5mC]*e[5mC]; antisense) [Compound 1198710]
YAP1 (% UTC) [8]: 51 % UTC

1198432 (kT*dA*dA*dT*dA*dT*dT*dG*d[5mC]*dA*dA*kT*e[5mC]*kT*eG*kT; antisense) [Compound 1198432]
YAP1 (% UTC) [2]: 70 % UTC

1198578 (antisense GCTTTGGAAGATCTGA; chemistry not fully specified) [Compound 1198578]
YAP1 (% UT) [5]: 18 % UT

1198658 (kA*kA*dG*d[5mC]*dA*d[5mC]*dT*dT*dT*dT*dA*d[5mC]*kA*eT*kT*eA; antisense) [Compound 1198658]
YAP1 (% UTC) [4]: 62 % UTC

1198556 (antisense kT*kA*kT*dT*dA*dG*dA*dG*dT*dA*dT*dG*kT*kG*kG*e[5mC]) [Compound 1198556]
YAP1 (% UT) [5]: 25 % UT

1198393 (kT*dT*dA*d[5mC]*dA*dT*dT*dA*dG*dG*dA*kA*e[5mC]*kA*eA*kG; antisense) [Compound 1198393]
YAP1 (% UTC) [2]: 58 % UTC

1200862 (kT*kT*kT*dA*dA*mA*dG*dT*dG*dT*dA*dT*dG*kT*k[5mC]*kA; antisense) [Compound 1200862]
YAP1 (% UT) [11]: 17 % UT

1198272 (kT*kT*dT*dA*dA*dA*dG*dT*dG*dT*dA*eT*eG*eT*k[5mC]*kA; antisense) [Compound 1198272]
YAP1 (% UTC) [7]: 37 % UTC
